target: sigma receptor (Cavia porcellus); assay: In vitro binding affinity measured on sigma opioid receptor using [3H]DTG as radioligand

| Structure (SMILES) | IC50 [nM] |
| --- | --- |
| COc1ccc2c(c1)C(SCCN1CCN(c3ccccc3OC)CC1)CCC2 (stereo unspecified) [1-(2-Methoxy-phenyl)-4-[2-(7-methoxy-1,2,3,4-tetrahydro-naphthalen-1-ylsulfanyl)-ethyl]-piperazine] | 138 |
| COc1ccc2c(c1)C(CCCN1CCN(c3ccccc3OC)CC1)=CCC2 [1-[3-(7-Methoxy-3,4-dihydro-naphthalen-1-yl)-propyl]-4-(2-methoxy-phenyl)-piperazine] | 228 |
| COc1ccc2c(c1)C(CCCN1CCN(c3ccccn3)CC1)=CCC2 [1-[3-(7-Methoxy-3,4-dihydro-naphthalen-1-yl)-propyl]-4-pyridin-2-yl-piperazine] | 246 |

These reach a lower IC50. Values come first.

| IC50 [nM] | Structure (SMILES) |
| --- | --- |
| 125 | COc1ccc2c(c1)C(CCCN1CCN(c3ccccn3)CC1)CCC2 (stereo unspecified) [1-[3-(7-Methoxy-1,2,3,4-tetrahydro-naphthalen-1-yl)-propyl]-4-pyridin-2-yl-piperazine] |
| 55 | COc1ccccc1N1CCN(CC/C=C2\CCCc3ccccc32)CC1 [1-{3-[3,4-Dihydro-2H-naphthalen-(1E)-ylidene]-propyl}-4-(2-methoxy-phenyl)-piperazine] |
| 52.2 | COc1ccccc1N1CCN(CC/C=C2\CCCc3c(OC)cccc32)CC1 [1-{3-[5-Methoxy-3,4-dihydro-2H-naphthalen-(1E)-ylidene]-propyl}-4-(2-methoxy-phenyl)-piperazine] |

Source: BindingDB's records for doi:10.1021/jm00006a013 (Universit&#224, 1995)
